According to patent US20210322324A1, “METHOD FOR TREATING PRIMARY SCLEROSING CHOLANGITIS” (AVOLYNT, priority 2018, published 2021):
“Also recorded” adds a separate entry of the source.

Key:
[1] = test system: TIA mice; assay: TIA mouse model of primary sclerosing cholangitis, liver histology after remogliflozin etabonate-formulated diet; type: in vivo
Excerpt: The following Examples describe the utilization of a murine model of […] (“PSC”) to assess the effectiveness of a treatment regimen based on the oral administration of remogliflozin etabonate. The murine PSC model is based on mice that are deficient for the expression of tumor necrosis factor alpha (“TNFα”), interleukin 10 (“IL-10”), and activation-induced cytidine deaminase (“AICDA”). As the mice are deficient in TNF, IL-10, and AICDA, they are referred to, herein, as “TIA” mice.
Moreover, as AICDA is required for immunoglobulin (“Ig”) class switching, TIA mice lack IgG and IgA, a phenotype analogous to humans with hyper-IgM syndrome. Therefore, with the combination of AICDA deficiency with the risk factors associated with TNFα and IL-10 deficiencies, TIA mice also develop liver and biliary inflammation reminiscent of PSC symptoms in humans. Accordingly, the TIA model is useful for investigating mechanisms that act early in PSC pathogenesis, as well as treatments that can prevent progression to PSC.
Example 1. Orally-administered remogliflozin etabonate reduces inflammatory cell infiltration, bile ductular proliferation, and interface hepatitis in TIA mice. TIA mice were created by first breeding TNFα knock out (“KO”) C57BL/6 mice, (strain B6.129S-Tnf^tm1Gkl/J, stock #005540, Jackson Laboratories, Bar Harbor, Me.) with IL-10 KO mice (strain B10.129P2(B6)-IL10^tm1Cgn/J, Stock No. 002251, Jackson Laboratories) to produce a population of mice that were deficient in TNFα and IL-10. Because mice with a TNFα−/− and IL10−/− genotype spontaneously develop inflammatory bowel disease (“IBD”) (Hale 2012), a condition associated with poor breeding success (Nagy 2016), the mice needed for further breeding to generate an AICDA population, were generated by breeding offspring with a TNFα and IL10+/− genotype with AICDA−/− mice, which were obtained from Dr. Tasuku Honjo (Muramatsu 2000)), to produce a population of TNFα−/−, IL10−/−, and AICDA+/−(“TI-hetA”) males and females. In turn, TI-hetA pairs were bred to generate populations that were 25% TIA mice, and 50% non-colitis-susceptible TI-hetA littermates that could be used as control populations. All populations were exposed to the same environment from birth. The mice were housed in polycarbonate micro-isolator cages, in individually ventilated racks, under barrier conditions that excluded all known pathogens, including Helicobacter pylori and Norovirus. Mice had ad libitum access to water, and to a standard diet (PicoLab Mouse Diet 20/5058, LabDiet, St. Louis, Mo., USA).
At four (4) weeks of age, TIA (40) and TI-hetA (22) mice were randomized into experimental groups that received either a standard diet (20 TIA and 12 het), or a standard diet formulated 0.03% remogliflozin etabonate (20 TIA and 10 het) (Avolynt Inc., USA). The mice were maintained on this diet for seven (7) weeks. Body weights were obtained three (3) times, weekly, to assess the general health of mice, and to track the development of inflammatory bowel disease (IBD). Glycosuria in the experimental groups was assessed by applying freshly voided urine directly to the glucose test patch on an Accutest® URS-10 urinary reagent test strips (Jant Pharmaceutical Corp., Encino, Calif., USA). Mice were humanely euthanized before reaching the experimental endpoint, of eleven (11) weeks of age, if they lost >15% body weight, or developed rectal prolapse.
To characterize biliary lesions in TIA mice at the end of the 7 week treatment period, liver tissue was obtained from the remogliflozin-treated, and untreated groups, for histologic examination. The excised liver tissue was fixed in Carnoy's fixative solution, and processed into paraffin blocks. The paraffin blocks were sectioned, and stained with Hematoxylin and eosin (H&E) for pathologic analysis. The H&E-stained sections were scored by an American Board of Pathology-certified pathologist. […]

[2] = Plasma remogliflozin after oral compressed IR tablet of remogliflozin etabonate; type: in vivo; conditions: 350 mg remogliflozin etabonate, after 3 hrs
Excerpt: Oral dosage forms according to the invention are typically tablets or capsules. Tablets can be obtained by direct compression of the mixed components of a dosage form, including an effective dosage amount of remogliflozin etabonate, and selected excipients, like cellulose derivatives, metacrylates, chitosan, carboxymethylstarch (CMS), or mixtures thereof. For example, a compressed tablet according to the invention, can be prepared by granulating remogliflozin etabonate, microcrystalline cellulose and croscarmellose sodium with a water and povidone solution. The resulting granules are dried, milled, and then blended with mannitol, microcrystalline cellulose, and croscarmellose. The blend is lubricated with magnesium stearate and compressed. […] Indeed, Tmax for an IR remogliflozin etabonate oral dosage form according to the invention occurs at 1 hour, or less, following ingestion of the dosage form by a subject.

[3] = TIA mice, 0.03% in diet for 7 weeks, vs untreated TIA mice, 11 weeks

## CCOC(=O)OC[C@H]1O[C@@H](Oc2nn(C(C)C)c(C)c2Cc2ccc(OC(C)C)cc2)[C@H](O)[C@@H](O)[C@@H]1O [remogliflozin etabonate, 5-methyl-4-[4-(1-methylethoxy)benzyl]-1-(1-methylethyl)-1H-pyrazol-3-yl 6-O-(ethoxycarbonyl)-β-D-glucopyranoside]
[1]; [3]
  inflammation at the interface between the hepatic parenchyma and the portal tracts (interface hepatitis): reduces; also recorded: less inflammation at the interface between the hepatic parenchyma and the portal tracts
  proliferation of bile ductules (bile ductular proliferation): reduces; also recorded: less proliferation of bile ductiles
[1]; TIA mice, 0.03% in diet for 7 weeks, vs untreated TIA mice, 11 weeks, listed as Remo
  proliferation of bile ductules (bile ductular proliferation): decrease in proliferation of bile ductules
[1]; TIA mice, 0.03% remogliflozin etabonate in diet for 7 weeks from 4 weeks of age, vs standard diet, H&E liver sections at 11 weeks
  development and progression of liver and biliary disease: markedly less development and progression of liver and biliary disease
[1]; TIA mice, 7-week study, euthanasia on >15% body weight loss or rectal prolapse
  number of TIA mice that required early euthanasia, Remo group versus control group: no statistical difference
[1]; TIA mice, orally administered in diet
  inflammatory cell infiltration: reduces
[1]; TIA mouse at 11 weeks, 0.03% Remo in chow from 4 weeks of age, H&E liver section
  periportal and biliary inflammation: decrease in periportal and biliary inflammation
[2]
  remogliflozin plasma concentration after clearance: 40 ng/mL
